# Measurements from the supplement of paper PMC10307832.
# Key:
# Experiment in all cases: relative viability (nuclei count vs DMSO), 5 days (fraction); higher = more cells survive
# Venetoclax = compound: CC1(C)CCC(CN2CCN(c3ccc(C(=O)NS(=O)(=O)c4ccc(NCC5CCOCC5)c([N+](=O)[O-])c4)c(Oc4cnc5[nH]ccc5c4)c3)CC2)=C(c2ccc(Cl)cc2)C1 [Venetoclax]
# Procedure, shortened: (§1)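 Five library-drug doses spaced by √10 were pinned onto vehicle-anchored 1536-well plates of lung cancer cell lines that had been kept overnight at 37 °C. Cells went 5 days without medium change, then were fixed, permeabilised and Hoechst-stained together, imaged at 4× and counted by MetaXpress. Viability is the ratio of treated-well to vehicle-well nuclei, taken as a median over plates. Plates required control CV below 25% and at least one doubling.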
# Selumetinib = compound: Cn1cnc2c(F)c(Nc3ccc(Br)cc3Cl)c(C(=O)NOCCO)cc21 [Selumetinib]
# Procedure, shortened: as §1
# Venetoclax + Trametinib = compound: CC1(C)CCC(CN2CCN(c3ccc(C(=O)NS(=O)(=O)c4ccc(NCC5CCOCC5)c([N+](=O)[O-])c4)c(Oc4cnc5[nH]ccc5c4)c3)CC2)=C(c2ccc(Cl)cc2)C1 [Venetoclax] + CC(=O)Nc1cccc(-n2c(=O)n(C3CC3)c(=O)c3c(Nc4ccc(I)cc4F)n(C)c(=O)c(C)c32)c1 [Trametinib] (partner 0.02 µM)
# Procedure, shortened: (§2)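 Nuclei were stained with Hoechst during a one-step fixation (final 0.05% Triton X-100, 1% formaldehyde, 1 ug/ml Hoechst) carried out 5 days after dosing, then counted on 4× images. The cells, lung cancer lines in 1536-well plates, had been dosed by pin tool the day after seeding with one drug alone or a fixed anchor-drug dose plus five library-drug doses (not always all listed) in √10 steps. Relative viability is the nuclei count in treated wells divided by that in vehicle wells, and each value is the median of duplicate plates.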
# Selumetinib + Navitoclax = compound: Cn1cnc2c(F)c(Nc3ccc(Br)cc3Cl)c(C(=O)NOCCO)cc21 [Selumetinib] + CC1(C)CCC(c2ccc(Cl)cc2)=C(CN2CCN(c3ccc(C(=O)NS(=O)(=O)c4ccc(N[C@H](CCN5CCOCC5)CSc5ccccc5)c(S(=O)(=O)C(F)(F)F)c4)cc3)CC2)C1 [Navitoclax] (partner 0.5 µM)
# Procedure, shortened: as §2
Cell Line,relative viability (Venetoclax; 0.01 µM),relative viability (Venetoclax; 0.03162 µM),relative viability (Venetoclax; 0.1 µM),relative viability (Venetoclax; 0.3162 µM),relative viability (Venetoclax; 1 µM),relative viability (Selumetinib; 0.02 µM),relative viability (Selumetinib; 0.06325 µM),relative viability (Selumetinib; 0.2 µM),relative viability (Selumetinib; 0.6325 µM),relative viability (Venetoclax + Trametinib; first compound 0.01 µM),relative viability (Venetoclax + Trametinib; first compound 0.03162 µM),relative viability (Venetoclax + Trametinib; first compound 0.1 µM),relative viability (Venetoclax + Trametinib; first compound 0.3162 µM),relative viability (Venetoclax + Trametinib; first compound 1 µM),relative viability (Selumetinib + Navitoclax; first compound 0.02 µM),relative viability (Selumetinib + Navitoclax; first compound 0.06325 µM),relative viability (Selumetinib + Navitoclax; first compound 0.2 µM),relative viability (Selumetinib + Navitoclax; first compound 0.6325 µM)
NCI-H2009,1.05,1.01,0.991,0.974,0.882,0.925,0.639,0.574,0.385,0.346,0.351,0.292,0.266,0.264,1.07,0.935,0.673,0.554
NCI-H1944,1.14,0.937,0.951,1.05,0.891,0.946,0.791,0.673,0.643,0.511,0.474,0.394,0.432,0.361,0.97,0.945,0.756,0.779
EPLC-272H,0.874,1.09,0.934,1.03,0.888,0.875,0.774,0.614,0.648,0.287,0.284,0.238,0.259,0.263,0.791,0.942,0.76,0.843
NCI-H3122,1.06,1,0.967,0.962,0.983,0.846,0.75,0.697,0.67,0.259,0.197,0.211,0.227,0.29,0.937,0.852,0.908,0.808
NCI-H2085,0.873,1.08,1.03,0.969,0.928,0.863,0.844,0.881,0.788,0.45,0.56,0.416,0.547,0.511,1.09,1.07,0.913,0.795
HCC-366,0.995,1.03,0.986,1.02,0.939,0.967,0.992,0.842,0.851,0.358,0.411,0.353,0.383,0.407,1.11,0.954,0.917,0.757
HCC-78,1.1,1.21,1.01,0.959,0.942,0.924,0.853,0.802,0.91,0.599,0.826,0.597,0.722,0.911,0.77,0.758,0.69,0.738
COR-L23,0.979,1.03,0.967,0.999,0.911,1.09,1.03,1.07,0.99,0.528,0.588,0.502,0.575,0.547,1.05,0.926,1.06,1.04
HCC-827,1.03,1.07,0.924,1.02,1.04,1.03,1.06,0.994,0.941,0.522,0.593,0.538,0.521,0.535,0.978,1.04,1.03,1.04
NCI-H1437,0.971,1.04,0.989,0.957,0.949,0.911,0.817,0.703,0.53,0.5,0.52,0.529,0.463,0.435,1.07,0.856,0.75,0.487
PC-14,1,1.08,1.03,0.989,0.818,0.931,0.932,0.935,0.844,0.679,0.726,0.726,0.642,0.645,1.02,1.03,0.957,0.949
NCI-H2228,0.942,1.03,0.86,0.891,0.965,0.898,0.958,0.943,0.797,0.715,0.608,0.567,0.453,0.464,0.928,0.678,0.789,0.729
BEN,1.03,1.09,0.887,0.999,0.941,0.934,1.02,0.863,0.938,1.1,1.02,0.864,1.04,1,0.0655,0.0564,0.0657,0.0674
LOU-NH91,0.969,1.09,0.942,0.954,0.925,0.935,0.884,0.899,0.901,0.784,0.81,0.768,0.807,0.707,0.631,0.607,0.514,0.556
EKVX,0.998,1,0.913,0.975,0.937,0.784,0.775,0.645,0.565,0.328,0.382,0.302,0.335,0.38,0.689,0.82,0.559,0.487
NCI-H1355,0.957,0.983,1.01,1.03,0.904,0.949,0.85,0.749,0.743,0.455,0.46,0.435,0.432,0.44,0.893,0.932,0.776,0.513
NCI-H727,1.17,0.993,0.848,0.953,0.827,0.5,0.418,0.352,0.385,0.363,0.392,0.406,0.412,0.386,0.237,0.184,0.119,0.103

Cell Line,relative viability (Venetoclax; 0.01 µM),relative viability (Venetoclax; 0.03162 µM),relative viability (Venetoclax; 0.1 µM),relative viability (Venetoclax; 0.3162 µM),relative viability (Venetoclax; 1 µM),relative viability (Selumetinib; 0.02 µM),relative viability (Selumetinib; 0.06325 µM),relative viability (Selumetinib; 0.2 µM),relative viability (Selumetinib; 0.6325 µM),relative viability (Venetoclax + Trametinib; first compound 0.01 µM),relative viability (Venetoclax + Trametinib; first compound 0.03162 µM),relative viability (Venetoclax + Trametinib; first compound 0.1 µM),relative viability (Venetoclax + Trametinib; first compound 0.3162 µM),relative viability (Venetoclax + Trametinib; first compound 1 µM),relative viability (Selumetinib + Navitoclax; first compound 0.02 µM),relative viability (Selumetinib + Navitoclax; first compound 0.06325 µM),relative viability (Selumetinib + Navitoclax; first compound 0.2 µM),relative viability (Selumetinib + Navitoclax; first compound 0.6325 µM)
NCI-H1666,0.915,1.02,0.966,0.933,1.01,0.917,0.94,0.878,0.875,0.764,0.809,0.73,0.824,0.858,0.773,0.582,0.592,0.479
NCI-H2126,1,1.07,0.992,0.996,0.953,0.932,0.883,0.857,0.77,0.544,0.618,0.538,0.566,0.521,0.789,0.764,0.75,0.59
NCI-H1793,0.933,0.993,0.787,0.887,0.784,0.709,0.682,0.561,0.457,0.334,0.46,0.367,0.335,0.419,0.478,0.304,0.311,0.281
COR-L 105,0.946,0.917,0.834,1.02,0.873,0.713,0.572,0.672,0.55,0.333,0.499,0.386,0.496,0.413,0.78,0.574,0.642,0.451
HARA,0.903,1.08,0.926,1.06,0.993,0.903,0.819,0.824,0.718,1.26,0.818,–,0.647,0.676,1.17,1.13,1.09,1.1
NCI-H2023,0.932,1.05,1.05,0.953,0.859,0.987,0.841,0.862,0.758,0.526,0.552,0.558,0.485,0.477,0.937,0.924,0.959,0.783
NCI-H1792,0.892,1.06,0.918,0.98,0.856,0.901,0.728,0.827,0.689,0.456,0.405,0.485,0.498,0.439,0.741,0.641,0.522,0.533
LXF-289,1.17,1.02,0.944,0.956,0.883,0.948,0.932,0.835,0.778,0.716,0.692,0.629,0.625,0.575,0.913,0.894,0.754,0.754
ChaGo-K-1,1.06,1.16,0.888,1.01,0.99,0.999,0.939,0.946,0.929,0.769,0.951,0.882,0.939,0.815,0.878,0.956,0.911,1.23
NCI-H2347,1.06,1.12,0.965,0.978,0.977,0.917,0.667,0.492,0.386,0.327,0.288,0.254,0.298,0.267,0.752,0.403,0.271,0.228
RERF-LC-KJ,0.987,1.06,0.972,0.909,0.926,1,0.936,0.968,0.886,0.705,0.851,0.873,0.886,0.795,0.726,0.819,0.939,0.758
NCI-H1650,0.903,1.02,0.815,1.05,0.768,0.857,0.796,0.837,0.795,0.539,0.581,0.609,0.485,0.529,1,0.893,0.904,1.01
NCI-H596,1.01,0.972,0.941,0.925,0.888,0.9,0.881,0.889,0.729,0.731,0.746,0.851,0.951,0.755,0.906,0.845,0.677,0.415
NCI-H1734,0.906,1.03,0.868,0.957,0.912,1,0.936,0.928,0.919,0.588,0.739,0.635,0.781,0.614,0.862,0.818,0.87,0.679
NCI-H1915,0.954,1.03,0.937,0.991,0.92,1.07,0.84,0.666,0.581,0.253,0.319,0.295,0.318,0.299,0.714,0.792,0.795,0.498
NCI-H838,0.965,1.05,0.948,0.957,0.906,0.853,0.863,0.854,0.743,0.559,0.522,0.524,0.491,0.488,1.01,0.965,0.963,0.88
HCC-15,0.937,1.07,0.929,0.902,0.909,0.844,0.64,0.487,0.389,0.384,0.457,0.352,0.403,0.375,0.507,0.397,0.32,0.199
